These results are taken from patent EP0801527B1 (priority 1995, dated 1996).

Experiment [1] addresses T1, muscle-like nicotinic receptors (Homo sapiens, UniProt P02708+P07510+Q07001).
T1 construct: Intact cells on dishes were used for functional studies; endogenous in cells; host or cells: TE671/RD human embryonal rhabdomyosarcoma cells
Description: cell-based. Particulars: for Emax: TE671/RD, read-out: Muscle Effect. Type of experiment: cell-based.

Experiment [2] deals with T2, ganglionic-type neuronal nicotinic receptors (Rattus norvegicus, UniProt P04757+P12392).
T2 construct: Intact cells on dishes were used for functional studies; endogenous in cells; host or cells: PC12 rat pheochromocytoma cells
T2 sequence (P04757 26-499): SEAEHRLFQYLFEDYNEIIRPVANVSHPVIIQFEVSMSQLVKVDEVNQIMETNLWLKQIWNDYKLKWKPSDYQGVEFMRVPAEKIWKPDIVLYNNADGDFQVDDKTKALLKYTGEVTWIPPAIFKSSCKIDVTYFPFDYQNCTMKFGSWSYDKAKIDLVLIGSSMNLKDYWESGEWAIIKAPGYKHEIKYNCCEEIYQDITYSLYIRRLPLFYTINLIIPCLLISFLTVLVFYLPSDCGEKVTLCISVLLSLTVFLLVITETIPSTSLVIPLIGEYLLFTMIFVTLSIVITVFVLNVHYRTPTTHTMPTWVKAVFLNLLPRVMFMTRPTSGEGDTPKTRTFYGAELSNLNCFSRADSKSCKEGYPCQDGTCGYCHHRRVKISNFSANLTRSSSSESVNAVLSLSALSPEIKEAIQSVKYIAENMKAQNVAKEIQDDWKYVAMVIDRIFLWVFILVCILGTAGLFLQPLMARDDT
T2 sequence (P12392 21-495): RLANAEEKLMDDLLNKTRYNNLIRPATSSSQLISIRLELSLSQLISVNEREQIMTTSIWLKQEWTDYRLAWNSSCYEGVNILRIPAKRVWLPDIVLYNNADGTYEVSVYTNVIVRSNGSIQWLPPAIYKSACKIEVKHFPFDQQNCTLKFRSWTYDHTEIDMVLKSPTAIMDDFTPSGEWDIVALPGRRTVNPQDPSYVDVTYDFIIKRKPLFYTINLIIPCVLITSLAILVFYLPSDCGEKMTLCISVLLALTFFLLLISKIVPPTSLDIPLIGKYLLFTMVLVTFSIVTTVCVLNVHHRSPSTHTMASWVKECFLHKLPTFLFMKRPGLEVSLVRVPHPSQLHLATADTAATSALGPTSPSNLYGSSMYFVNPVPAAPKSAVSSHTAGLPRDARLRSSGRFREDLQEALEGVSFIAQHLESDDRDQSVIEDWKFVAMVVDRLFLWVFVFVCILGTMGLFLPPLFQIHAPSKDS
Briefly: cell-based. The settings on record: for Emax: PC-12, read-out: Ganglion Effect.

Experiment [3] deals with synaptosomes from the striatal area of rat brain. Description: [3H]-Dopamine release from striatal synaptosomes (continuous perfusion). Type of experiment: cell-based, Sprague-Dawley rats. The settings on record: for Emax: Rattus norvegicus; for EC50: rat striatal synaptosomes. How it is done:
Dopamine release was measured by preparing synaptosomes from the striatal area of rat brain obtained from Sprague-Dawley rats generally according to the procedures set forth by Nagy et al., J. Neurochem., Vol. 43, pp. 1114-1123 (1984). Striata from 4 rats were homogenized in 2 ml of 0.32M sucrose buffered with 5 mM HEPES (pH 7.5), using a glass-Teflon tissue grinder. The homogenate was diluted to 5 ml with additional homogenization solution and centrifuged at 1,000 x g for 10 min. This procedure was repeated on the new pellet and the resulting supernatant was centrifuged at 12,000 x g for 20 min. A 3 layer discontinuous Percoll gradient consisting of 16 percent, 10 percent and 7.5 percent Percoll in HEPES-buffered sucrose was made with the final pellet dispersed in the top layer. After centrifugation at 15,000 x g for 20 min., the synaptosomes were recovered above the 16 percent layer with a Pasteur pipette, diluted with 8 ml of perfusion buffer (128 mM NaCl, 2.4 mM KCl, 3.2 Mm CaCl2, 1.2 mM KH2PO4, 1.2 mM MgSO4, 25 mM HEPES pH 7.4, 10 mM dextrose, 1 mM ascorbate, 0.01 mM pargyline), and centrifuged at 15,000 x g for 20 min. The new pellet was collected and re-suspended in perfusion buffer. The synaptosome suspension was incubated for 10 min. at 37°C. [^3H]-Dopamine (Amersham, 40-60 Ci/mmol) was added to the suspension to give a final concentration of 0.1 uM, and the suspension was incubated for another 5 min. Using this method, 30 to 90 percent of the dopamine was taken up into the synaptosomes, as determined by scintillation counting following filtration through glass fiber filters soaked with 0.5 percent polyethyleneimine. A continuous perfusion system was used to monitor release following exposure to each ligand. Synaptosomes were loaded onto glass fiber filters (Gelman type A/E). Perfusion buffer was dripped onto the filters (0.2-0.3 ml/min.) and pulled through the filters with a peristaltic pump. Synaptosomes were washed with perfusion buffer for a minimum of 20 min. before addition of the ligand. After the addition of 0.2 ml of a solution containing various concentrations of ligand, the perfusate was collected into scintillation vials at 1 min. intervals and the dopamine released was quantified by scintillation counting. Peaks of radioactivity released above background were summed and the average basal release during that time was subtracted from the total.

The target in experiment [4] is T3, high affinity CNS nicotinic receptors (Rattus norvegicus, UniProt P09483+P12390).
T3 construct: Brain membrane preparations were obtained from brain tissue of either males or females; from tissue; host or cells: rat (Sprague-Dawley) brain without cerebellum, membrane preparation
T3 sequence (P09483 31-630): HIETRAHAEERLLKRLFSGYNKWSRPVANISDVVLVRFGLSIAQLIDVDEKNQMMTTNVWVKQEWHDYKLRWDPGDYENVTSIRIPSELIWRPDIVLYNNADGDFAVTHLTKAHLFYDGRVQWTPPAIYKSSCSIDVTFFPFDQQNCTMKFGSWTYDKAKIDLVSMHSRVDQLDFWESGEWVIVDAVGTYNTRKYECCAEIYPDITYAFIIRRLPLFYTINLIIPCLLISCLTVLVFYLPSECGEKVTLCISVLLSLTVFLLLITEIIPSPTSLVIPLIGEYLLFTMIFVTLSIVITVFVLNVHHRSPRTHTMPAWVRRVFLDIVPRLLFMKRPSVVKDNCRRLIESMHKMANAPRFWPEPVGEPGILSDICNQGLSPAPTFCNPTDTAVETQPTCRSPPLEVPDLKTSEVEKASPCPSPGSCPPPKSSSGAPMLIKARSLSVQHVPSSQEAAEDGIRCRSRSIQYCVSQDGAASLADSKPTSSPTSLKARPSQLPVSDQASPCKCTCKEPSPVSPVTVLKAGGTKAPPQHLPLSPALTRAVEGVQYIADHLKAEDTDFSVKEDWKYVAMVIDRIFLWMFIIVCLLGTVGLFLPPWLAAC
T3 sequence (P12390 25-500): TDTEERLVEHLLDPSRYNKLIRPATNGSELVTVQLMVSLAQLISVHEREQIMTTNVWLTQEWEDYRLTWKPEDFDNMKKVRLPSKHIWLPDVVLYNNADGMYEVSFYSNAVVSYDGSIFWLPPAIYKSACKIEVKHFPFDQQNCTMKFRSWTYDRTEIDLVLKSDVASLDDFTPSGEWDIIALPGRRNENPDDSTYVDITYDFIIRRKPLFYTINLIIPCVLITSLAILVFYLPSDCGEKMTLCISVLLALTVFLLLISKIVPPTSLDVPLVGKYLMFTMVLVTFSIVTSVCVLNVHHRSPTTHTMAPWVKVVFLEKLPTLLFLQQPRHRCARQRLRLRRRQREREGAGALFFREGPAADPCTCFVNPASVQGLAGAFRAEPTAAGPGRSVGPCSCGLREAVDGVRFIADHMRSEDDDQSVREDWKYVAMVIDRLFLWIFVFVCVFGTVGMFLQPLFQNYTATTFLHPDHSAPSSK
Description: biochemical. In kind it is binding, Rats (Sprague-Dawley).

Molecules are shown by their SMILES. Like-named read-outs stand apart in the source and are kept apart here.

T1 sequence (P02708 21-457): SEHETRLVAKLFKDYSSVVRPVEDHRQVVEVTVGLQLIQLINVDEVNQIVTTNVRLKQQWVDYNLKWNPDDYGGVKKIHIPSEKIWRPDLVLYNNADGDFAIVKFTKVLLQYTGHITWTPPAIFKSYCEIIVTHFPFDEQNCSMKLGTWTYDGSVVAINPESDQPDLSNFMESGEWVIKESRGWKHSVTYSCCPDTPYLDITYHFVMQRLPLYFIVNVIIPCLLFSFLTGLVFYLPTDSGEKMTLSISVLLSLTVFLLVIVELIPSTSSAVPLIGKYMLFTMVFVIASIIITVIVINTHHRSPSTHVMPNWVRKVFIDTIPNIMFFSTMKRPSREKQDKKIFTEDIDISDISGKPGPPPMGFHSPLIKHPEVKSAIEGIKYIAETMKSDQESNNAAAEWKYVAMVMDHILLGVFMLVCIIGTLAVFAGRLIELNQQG
T1 sequence (P07510 23-517): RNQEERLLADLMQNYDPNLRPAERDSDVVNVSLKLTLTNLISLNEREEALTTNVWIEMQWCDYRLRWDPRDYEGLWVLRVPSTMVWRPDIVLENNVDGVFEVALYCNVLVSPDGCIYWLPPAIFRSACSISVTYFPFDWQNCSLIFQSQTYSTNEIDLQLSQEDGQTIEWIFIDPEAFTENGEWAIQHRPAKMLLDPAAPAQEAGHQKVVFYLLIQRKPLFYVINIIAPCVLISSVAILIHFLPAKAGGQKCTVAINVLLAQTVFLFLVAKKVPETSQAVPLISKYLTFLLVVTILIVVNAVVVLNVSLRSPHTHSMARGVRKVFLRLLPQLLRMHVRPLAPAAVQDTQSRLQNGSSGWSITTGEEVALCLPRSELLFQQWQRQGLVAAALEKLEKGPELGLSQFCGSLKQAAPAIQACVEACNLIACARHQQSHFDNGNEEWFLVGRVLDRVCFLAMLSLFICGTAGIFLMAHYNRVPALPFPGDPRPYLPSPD
T1 sequence (P11230 24-501, further chain): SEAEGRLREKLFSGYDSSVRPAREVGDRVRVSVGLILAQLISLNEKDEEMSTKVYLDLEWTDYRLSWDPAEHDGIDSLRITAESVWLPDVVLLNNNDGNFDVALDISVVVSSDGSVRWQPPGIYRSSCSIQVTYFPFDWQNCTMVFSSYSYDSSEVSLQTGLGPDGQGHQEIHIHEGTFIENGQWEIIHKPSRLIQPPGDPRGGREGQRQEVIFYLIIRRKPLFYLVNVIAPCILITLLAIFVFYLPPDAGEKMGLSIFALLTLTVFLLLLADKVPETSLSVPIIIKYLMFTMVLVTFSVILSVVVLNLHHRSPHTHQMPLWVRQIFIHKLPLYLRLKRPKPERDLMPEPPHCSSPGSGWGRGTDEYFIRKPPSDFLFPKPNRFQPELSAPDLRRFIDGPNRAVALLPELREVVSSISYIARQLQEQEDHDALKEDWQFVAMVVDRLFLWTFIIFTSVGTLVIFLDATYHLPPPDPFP
T1 sequence (Q07001 22-517): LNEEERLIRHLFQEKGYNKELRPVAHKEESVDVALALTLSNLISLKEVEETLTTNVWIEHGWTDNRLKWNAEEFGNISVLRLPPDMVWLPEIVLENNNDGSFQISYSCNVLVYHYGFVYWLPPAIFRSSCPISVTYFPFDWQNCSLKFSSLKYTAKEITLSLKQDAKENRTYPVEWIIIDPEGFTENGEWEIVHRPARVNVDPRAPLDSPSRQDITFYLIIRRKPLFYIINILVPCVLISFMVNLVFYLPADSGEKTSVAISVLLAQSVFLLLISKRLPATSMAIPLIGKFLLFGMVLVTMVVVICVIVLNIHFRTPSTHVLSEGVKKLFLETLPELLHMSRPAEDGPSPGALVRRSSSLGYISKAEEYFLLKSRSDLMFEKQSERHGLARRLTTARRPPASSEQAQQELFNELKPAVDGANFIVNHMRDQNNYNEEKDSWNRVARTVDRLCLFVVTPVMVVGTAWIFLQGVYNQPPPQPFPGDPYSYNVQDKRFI

Usually EC50 stands for the concentration needed to bring the measured effect to its halfway point. In the case of `COc1cncc(/C=C/CCN)c1` [Sample No. 3, (E)-4-[3-(5-methoxypyridin)yl] -3-butene-1-amine monofumarate], the Emax in experiment [1] is 0%; in experiment [2] it was 0%; in experiment [3], 95%. The molecule also displayed an EC50 in experiment [3] of 4 µM.
Take `CNCC/C=C/c1ccc(C)nc1` [Sample No. 6, (E)-N-methyl-4-[3-(6-methylpyrindin)yl]-3-butene-1-amine]: the Emax came out at 2% in experiment [1], 4% in experiment [2] and 60% in experiment [3]. In addition, the EC50 in experiment [3] worked out at 0.219 µM.
In experiment [3], `NCC/C=C/c1cncnc1` [Sample No. 1, (E)-4-(5-pyrimidinyl)-3-butene-1-amine monofumarate] gave an Emax of 113% and an EC50 of 4.36 µM.
Take `CN1CCC[C@H]1c1cccnc1` [Sample No. C-1, (S)-(-)-nicotine, reference compound]: in experiment [3], the Emax was 100% and a half-maximal response (EC50) required 0.115 µM.
As to `CNCC/C=C/c1cccnc1` [Sample No. 8, (E)-metanicotine, reference compound], the “Muscle Effect” value in experiment [1] was found to be 15 % nicotine. In addition, the “Dopamine Release Emax” value in experiment [3] was determined as 80 %nicotine.
With `CNCC/C=C\c1cccnc1` [Sample No. 5, (Z) metanicotine], the “Dopamine Release Emax” value in experiment [3] is listed as 88 %nicotine.
Turning to `CNCC/C=C/c1cncnc1` [Sample No. 2, (E)-N-methyl-4-(5-pyrimidinyl)-3-butene-1-amine], the Emax in experiment [1] was determined as 4%; in experiment [2] it was 1%; in experiment [3], 77%. The same molecule returned an EC50 in experiment [3] of 5.8 µM.
The term Ki denotes the equilibrium dissociation constant of an inhibitor or competing ligand from its target. In turn, `CNCCC#Cc1cccnc1` [Sample No. 4, N-Methyl-4-(3-pyridinyl)-3-butyne-1-amine] had a Ki in experiment [4] of 58 nM. In addition, in experiment [1] (te671/rd cells), the “Muscle Effect” value was 7 % nicotine. The “Ganglion Effect” value in experiment [2] (pc12 cells) stood at 59 % nicotine. In experiment [3], the Emax stood at 87% and the concentration giving a half-maximal response (EC50) came out at 8.35 µM.
In experiment [4], `CNCCCCc1cccnc1` [Sample No. 7, N-methyl-(3-pyridinyl)-butane-1-amine] gave an inhibition constant (Ki) of 910 nM. This molecule had an Emax in experiment [3] of 72%.
